This test deals with S. mansoni. Kind of test: Drug testing on schistosomes in vitro (incubation of cultured worms with the substance, morphological assessment). It counts as cell-based. An excerpt:
Mirazidien für die Infektion von Wasserschnecken (Biomphalaria glabrata, Stamm Puerto Rico) wurden mittels Standardverfahren aus Gewebe (Leber, Darm) von Syrischen Goldhamstern bzw. Mäusen gewonnen, die mit S. mansoni (Liberian strain bzw. Brasilian strain) infiziert worden waren. Hierzu wurde das Gewebe (freundlicherweise zur Verfügung gestellt von Prof. Dr. Grevelding, Universität Gießen bzw. von Dr. Sombetzki, Universität Rostock) mechanisch zerkleinert und die darin enthaltenen Wurmeier mittels Enzymverdau aus dem Gewebeverband herausgelöst. Nach Zugabe von H2O zu dem Gewebspräzipitat schlüpfen aus den Eiern die Mirazidien. Die Infektion erfolgte separat für jede Schnecke mit 4-7 Mirazidien. Da Licht für die Zerkarien der Schlüsselreiz zum Verlassen der Schnecke ist, wurden die Schnecken in der vierten Woche nach Infektion dunkel gestellt, um ein vorzeitiges Ausschwärmen von Zerkarien zu unterbinden.
6-7 Wochen nach Infektion wurden die infizierten Schnecken aus Beispiel 1 in Wasser mittels einer 60-Watt Glühlampe von oben belichtet, da ab diesem Zeitpunkt Zerkarien die infizierten Schnecken in ausreichender Menge verlassen. Während einer Belichtungsdauer von 2-3 Stunden wurden die aufschwimmenden Zerkarien gesammelt. Nach wiederholtem Waschen und Überführen in Medium erfolgte die Transformation der Zerkarien mechanisch nach Standardverfahren. Dazu erfolgten wiederholte Passagen durch eine Emulsionsnadel, an die zwei Spritzen angeschlossen sind. Die durch die Transformation aus den Zerkarien (Gabelschwanzlarven) entstandenen Schistosomula wurden ebenfalls wiederholt in Medium gewaschen und dabei von den abgescherten Schwänzen getrennt.
Die transformierten Schistosomula wurden nach dem von Basch beschriebenen Verfahren kultiviert (Basch (1981), J Parasitol.; 67: 179-185), wobei das Verfahren leicht modifiziert wurde, wie es bei Reimers beschrieben wurde (Reimers et al. (2015), PLoS Negl Trop Dis 9(3): e0003593). […]

For the compound `CN(C)C(=O)C(CCN1CCC(O)(c2ccc(Cl)cc2)CC1)(c1ccccc1)c1ccccc1` [Loperamid, 4-[4-(4-Chlorphenyl)-4-hydroxypiperidin-1-yl]-N,N-dimethyl-2,2-diphenylbutyramid], under “Loperamid given together with Felodipin, in vitro”, the “Verstärkung der Wirkung von Felodipin” value is listed as “verstärkt Loperamid die Wirkung von Felodipin signifikant”.
Regarding `CCOC(=O)C1=C(C)NC(C)=C(C(=O)OC)C1c1cccc(Cl)c1Cl` (racemic) [Felodipin], the “Abtöten von Schistosomen” value (in vitro, Schistosomula, juvenile and adult worms, initially 10 µM (Figures 1-2: 10, 20, 40 µM), 24 h exposure then wash-out, assessed at 4 h, 24 h, 48 h, 72 h and 7 days) is “hochwirksam Schistosomen abtöten”. Also, the “morphologische Veränderungen und Schädigung der Würmer” value (incubation of parasitic worms with Felodipin in vitro) is “erheblichen morphologischen Veränderungen und irreversiblen Schädigung der Würmer”.

The values above are taken from patent EP3363436A1, “AGENT FOR TREATING PARASITIC WORM DISEASES” (Haas, Helmut, priority 2017, dated 2018).
